Assay results as given in ChEMBL document CHEMBL1127377, “2-Substitution of N6-benzyladenosine-5'-uronamides enhances selectivity for A3 adenosine receptors” (J Med Chem, 1994).

Experiments:
Adenosine receptor A1 = biological target: T1, Adenosine receptor A1 (Rattus norvegicus, UniProt P25099)
T1 sequence (P25099 whole entry): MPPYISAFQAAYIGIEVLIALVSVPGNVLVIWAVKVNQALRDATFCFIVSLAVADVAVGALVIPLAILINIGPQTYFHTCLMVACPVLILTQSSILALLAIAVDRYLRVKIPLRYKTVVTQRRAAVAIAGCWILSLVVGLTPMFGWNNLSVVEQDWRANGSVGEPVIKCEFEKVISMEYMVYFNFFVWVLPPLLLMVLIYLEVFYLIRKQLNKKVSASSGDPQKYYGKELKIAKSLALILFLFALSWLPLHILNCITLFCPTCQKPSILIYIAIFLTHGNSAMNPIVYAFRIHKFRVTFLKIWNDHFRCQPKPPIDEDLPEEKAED
Description: Tested for the binding affinity of A1 receptor by displacing the [3H]-PIA in rat brain membranes

Adenosine receptor A2a = Adenosine receptor A2a (Rattus norvegicus, UniProt P30543)
Adenosine receptor A3 = biological target: T2, Adenosine receptor A3 (Rattus norvegicus, UniProt P28647); test: biochemical
T2 sequence (P28647 whole entry): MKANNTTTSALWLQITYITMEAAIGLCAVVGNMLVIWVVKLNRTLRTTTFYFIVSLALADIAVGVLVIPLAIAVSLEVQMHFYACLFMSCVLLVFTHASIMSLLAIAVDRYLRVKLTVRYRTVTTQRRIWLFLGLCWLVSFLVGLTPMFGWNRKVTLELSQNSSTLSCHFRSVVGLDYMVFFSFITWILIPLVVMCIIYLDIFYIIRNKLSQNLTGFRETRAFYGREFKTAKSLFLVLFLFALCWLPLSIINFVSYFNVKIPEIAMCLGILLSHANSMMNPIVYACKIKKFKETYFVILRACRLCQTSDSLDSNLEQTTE
Description: Tested for the binding affinity of A3 receptor by displacing N6-[[125I]-4-amino-3-iodobenzyl]-adenosine-5''-N-methyluronamide from membranes of CHO cells transfected with rat A3-cDNA

Adenosine receptor A2a, sequence (P30543 whole entry): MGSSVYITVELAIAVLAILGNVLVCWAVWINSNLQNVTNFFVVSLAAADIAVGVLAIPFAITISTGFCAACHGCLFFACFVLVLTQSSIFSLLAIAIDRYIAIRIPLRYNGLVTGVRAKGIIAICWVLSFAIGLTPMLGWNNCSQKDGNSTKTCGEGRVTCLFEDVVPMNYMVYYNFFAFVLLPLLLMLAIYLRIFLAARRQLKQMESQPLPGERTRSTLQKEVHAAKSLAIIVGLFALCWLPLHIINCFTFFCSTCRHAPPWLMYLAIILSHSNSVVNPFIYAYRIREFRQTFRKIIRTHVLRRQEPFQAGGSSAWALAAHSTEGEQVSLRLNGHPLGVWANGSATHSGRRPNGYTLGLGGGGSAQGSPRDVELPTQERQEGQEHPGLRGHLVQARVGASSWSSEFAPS

Ki (Adenosine receptor A1) | Ki (Adenosine receptor A2a) | Ki (Adenosine receptor A3) | SMILES
14 nM | – | – | Nc1ccc(CCNc2ncnc3c2ncn3[C@@H]2O[C@H](CO)[C@@H](O)[C@H]2O)cc1
– | 197 nM | – | CNC(=O)[C@H]1O[C@@H](n2cnc3c(NCc4ccc(N)c(I)c4)ncnc32)[C@H](O)[C@@H]1O
2.1 nM | – | 15.5 nM | Nc1ccc(CCNc2ncnc3c2ncn3C2O[C@H](CO)[C@@H](O)[C@H]2O)cc1I (stereo not given in full)
– | 462 nM | – | OC[C@H]1O[C@@H](n2cnc3c(NC4CCCC4)ncnc32)[C@H](O)[C@@H]1O [N6-CYCLOPENTYLADENOSINE]
